Assays:
[1] = system: HT-29 cell line (human colon cancer cell line); experiment: MTT cytotoxicity assay on HT-29 colon cancer cells; assay type: cell-based; settings: for IC50: Homo sapiens, HT-29, MTT, mean of four independent assays, read-out: IC50 HT29; for Selectivity index (SI): NIH3T3 versus HT29
Protocol: (§1) Compounds 5a–5j were evaluated for their anticancer activity via the MTT assay against the HT-29 cell line. […] Both the synthesized compounds and standards were tested across concentrations from 1000 to 0.49 μg/mL.
(§2) The cytotoxic effects of the compounds on colon cancer (HT29, ATCC HTB-38) and normal healthy fibroblast (NIH3T3, ATCC CRL-1658) cell lines were evaluated using the MTT assay. Based on the cytotoxicity data 5c, 5h and 5j stand out in terms of activity.

[2] = system: NIH3T3 (healthy normal fibroblast cells); experiment: MTT cytotoxicity assay on NIH3T3 normal fibroblasts; assay type: cell-based; settings: Mus musculus, mean of four independent assays
Protocol: as §1, §2

[3] = molecular target: T1, VEGFR-2 enzyme (Homo sapiens, UniProt P35968); experiment: In vitro VEGFR-2 enzyme inhibition assay kit; assay type: biochemical
T1 construct: purchased
T1 sequence (P35968 20-1356): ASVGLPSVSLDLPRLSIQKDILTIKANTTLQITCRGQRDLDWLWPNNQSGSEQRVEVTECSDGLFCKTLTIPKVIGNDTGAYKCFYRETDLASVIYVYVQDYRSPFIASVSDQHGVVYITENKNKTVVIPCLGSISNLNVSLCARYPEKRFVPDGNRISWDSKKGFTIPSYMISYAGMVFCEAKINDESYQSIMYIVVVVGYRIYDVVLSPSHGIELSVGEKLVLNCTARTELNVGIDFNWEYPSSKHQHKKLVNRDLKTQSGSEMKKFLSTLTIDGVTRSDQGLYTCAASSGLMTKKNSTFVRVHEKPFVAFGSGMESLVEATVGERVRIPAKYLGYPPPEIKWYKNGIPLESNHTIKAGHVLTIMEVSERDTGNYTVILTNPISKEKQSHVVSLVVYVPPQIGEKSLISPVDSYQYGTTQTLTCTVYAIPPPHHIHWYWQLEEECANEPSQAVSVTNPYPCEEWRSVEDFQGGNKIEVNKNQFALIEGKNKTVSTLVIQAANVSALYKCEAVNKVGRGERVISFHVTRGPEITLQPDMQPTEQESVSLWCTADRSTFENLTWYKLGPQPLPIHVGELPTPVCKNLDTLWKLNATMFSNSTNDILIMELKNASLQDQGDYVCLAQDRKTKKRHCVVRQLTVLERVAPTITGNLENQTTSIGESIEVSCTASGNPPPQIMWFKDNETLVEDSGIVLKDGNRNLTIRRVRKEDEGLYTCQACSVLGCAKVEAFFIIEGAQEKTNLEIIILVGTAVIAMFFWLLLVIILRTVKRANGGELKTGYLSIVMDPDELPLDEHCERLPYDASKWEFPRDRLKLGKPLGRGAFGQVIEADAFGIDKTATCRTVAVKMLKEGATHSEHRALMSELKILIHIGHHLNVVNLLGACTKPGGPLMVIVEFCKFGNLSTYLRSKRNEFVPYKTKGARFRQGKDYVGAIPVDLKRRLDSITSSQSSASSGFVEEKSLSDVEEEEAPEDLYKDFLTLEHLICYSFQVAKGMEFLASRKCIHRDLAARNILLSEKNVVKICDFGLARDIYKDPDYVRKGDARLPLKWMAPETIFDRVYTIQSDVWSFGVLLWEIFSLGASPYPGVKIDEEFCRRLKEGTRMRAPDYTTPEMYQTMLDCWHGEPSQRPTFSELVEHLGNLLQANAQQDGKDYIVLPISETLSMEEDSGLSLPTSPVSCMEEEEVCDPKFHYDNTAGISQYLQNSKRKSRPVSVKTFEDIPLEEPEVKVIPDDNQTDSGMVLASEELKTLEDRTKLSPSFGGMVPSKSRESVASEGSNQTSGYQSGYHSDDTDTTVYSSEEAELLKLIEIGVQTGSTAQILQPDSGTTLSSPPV
Protocol: The inhibitory effects of the synthesized compounds on the VEGFR-2 enzyme were assessed using an in vitro assay kit (Table ).

[4] = system: HT-29 cells; experiment: Annexin V-FITC/PI flow cytometry apoptosis analysis; assay type: cell-based, human; settings: HT29, compound at IC50 concentration, 24 h, mean of two repetitions
Text: Programmed cell death-apoptosis is a normal physiological process in healthy organisms that eliminates cells no longer needed. During apoptosis, phosphatidylserine (PS) in the cell membrane is translocated to the outer layer. The Annexin V protein included in the kit binds to this externalized PS, enabling its detection with FITC, a fluorescent marker. Annexin V can also bind to necrotic cells. In such cases, the cells are identified using “Ethidium Homodimer III (EthD-III) (or propidium iodide, PI)”. Flow cytometric assay kits use double-staining protocols to assess apoptosis by detecting differences in cell morphology through the binding efficiency of the Annexin–V complex to PS on the cell surface. , Apoptotic, Necrotic, and Healthy Cells Detection Kit [Available from (Apoptic necrotic kit)] used during flow cytometer analysis.
Briefly, HT-29 cells were plated in six-well plates following the manufacturer’s guidelines and exposed to the compounds at their IC50 concentrations for 24 h. Following treatment, cell suspensions were centrifuged at 1200 rpm for 5 min, and the resulting pellets were rinsed twice with 1 mL of cold phosphate-buffered saline. The assay kits were used according to the manufacturer’s instructions by transferring cells to the appropriate buffer solutions. For each sample, at least 10 000 cells were evaluated. Cell population fractions in various quadrants and gates were determined using quadrant and gate statistical analysis, with settings optimized based on comparison to the untreated control group.
To further investigate the mechanism underlying its anticancer effect, the ability of compound 5h to induce apoptosis was assessed using the Annexin V-FITC/PI dual staining method. The results are presented in Figure , where the data are shown in four quadrants corresponding to different cell populations: live (living) cells correspond to Q1-LL, early apoptotic cells to Q1-LR, late apoptotic cells to Q1-UR, and necrotic cells to Q1-UL.

How did the IC50 [1] turn out when `O=C(CSc1nnc(-c2ccc3nc(-c4ccc(N5CCOCC5)cc4)[nH]c3c2)o1)c1ccccc1` [5a, 2-(5-(2-(4-Morpholinophenyl)-1H-benzo[d]imidazol-6-yl)-1,3,4-oxadiazol-2-ylthio)-1-phenylethan-1-One] was run?
Its IC50 is 135 ± 3.37 µM.

And the “Selectivity index (SI)” value [1]?
Its value is 1.42.

And the IC50 [2]?
The IC50 was 193 ± 7.56 µM.

Which IC50 [1] does the source give for `Cc1ccc(C(=O)CSc2nnc(-c3ccc4nc(-c5ccc(N6CCOCC6)cc5)[nH]c4c3)o2)cc1` [5b, 2-(5-(2-(4-Morpholinophenyl)-1H-benzo[d]imidazol-6-yl)-1,3,4-oxadiazol-2-ylthio)-1-(p-tolyl) Ethan-1-One] here?
The IC50 was 22.7 ± 2.39 µM.

What about the “Selectivity index (SI)” value [1] of the same compound?
Its value is 0.46.

And the IC50 [2]?
The IC50 was 10.5 ± 2.17 µM.

For `COc1ccc(C(=O)CSc2nnc(-c3ccc4nc(-c5ccc(N6CCOCC6)cc5)[nH]c4c3)o2)cc1` [5c, 1-(4-Methoxyphenyl)-2-(5-(2-(4-morpholinophenyl)-1H-benzo[d]imidazol-6-yl-1,3,4-oxadiazol-2-yl) Thio) Ethan-1-One], which IC50 [1] is on record?
The IC50 was 17.8 ± 1.77 µM.

What about the “Selectivity index (SI)” value [1] of the same compound?
Its value is 0.59.

And the IC50 [2]?
Its IC50 is 10.4 ± 0.205 µM.

What about the IC50 [3] of the same compound?
Its IC50 is 0.918 ± 0.027 µM.

How did the IC50 [1] turn out when `O=C(CSc1nnc(-c2ccc3nc(-c4ccc(N5CCOCC5)cc4)[nH]c3c2)o1)c1ccc(F)cc1` [5d, 1-(4-Fluorophenyl)-2-((5-(2-(4-morpholinophenyl)-1H-benzo[d]imidazol-6-yl)-1,3,4-oxadiazol-2-yl) Thio) Ethan-1-One] was run?
Its IC50 is 175 ± 5.92 µM.

What about the “Selectivity index (SI)” value [1] of the same compound?
The value was 0.93.

And the IC50 [2]?
Its IC50 is 163 ± 3.75 µM.

`O=C(CSc1nnc(-c2ccc3nc(-c4ccc(N5CCOCC5)cc4)[nH]c3c2)o1)c1ccc(Cl)cc1` [5e, 1-(4-Chlorophenyl)-2-((5-(2-(4-morpholinophenyl)-1H-benzo[d]imidazol-6-yl)-1,3,4-oxadiazol-2-yl) Thio) Ethan-1-One] was tested. Which IC50 [1] did it give?
Its IC50 is 104 ± 4.53 µM.

And the “Selectivity index (SI)” value [1]?
The value was 5.12.

What about the IC50 [2] of the same compound?
Its IC50 is 531 ± 8.1 µM.

For `N#Cc1ccc(C(=O)CSc2nnc(-c3ccc4nc(-c5ccc(N6CCOCC6)cc5)[nH]c4c3)o2)cc1` [5f, 4-(2-(5-(2-(4-Morpholinophenyl)-1H-benzo[d]imidazol-6-yl-1,3,4-oxadiazol-2-yl) Thio) Acetyl) Benzonitrile], which IC50 [1] is on record?
The IC50 was 30.2 ± 1.16 µM.

And the “Selectivity index (SI)” value [1]?
Its value is 0.49.

What about the IC50 [2] of the same compound?
Its IC50 is 14.7 ± 0.818 µM.

How did the IC50 [1] turn out when `O=C(CSc1nnc(-c2ccc3nc(-c4ccc(N5CCOCC5)cc4)[nH]c3c2)o1)c1ccc([N+](=O)[O-])cc1` [5g, 2-(5-(2-(4-Morpholinophenyl)-1H-benzo[d]imidazol-6-yl-1,3,4-oxadiazol-2-yl)thio)-1-(4-nitrophenyl) Ethan-1-One] was run?
Its IC50 is 260 ± 8.68 µM.

And the IC50 [2]?
The IC50 was > 1000 µM.

What does the source list for `O=C(CSc1nnc(-c2ccc3nc(-c4ccc(N5CCOCC5)cc4)[nH]c3c2)o1)c1ccc(Cl)c(Cl)c1` [5h, 1-(3,4-Dichlorophenyl)-2-((5-(2-(4-morpholinophenyl)-1H-benzo[d]imidazol-6-yl)-1,3,4-oxadiazol-2-yl) Thio) Ethan-1-One]?
fold higher cytotoxic activity than compound 5e ([1]; HT-29, compared to 5e): approximately 33 fold; IC50 [1]: 3.1 ± 0.979 µM; Selectivity index (SI) [1]: 4.88; IC50 [2]: 15.2 ± 0.987 µM; IC50 [3]: 0.049 ± 0.002 µM; early apoptosis [4]: 2.05 ± 0.25%; late apoptosis [4]: 16.95 ± 2.85%; necrosis [4]: 12.2 ± 2.1%

What does the source list for `Cc1ccc(C(=O)CSc2nnc(-c3ccc4nc(-c5ccc(N6CCOCC6)cc5)[nH]c4c3)o2)c(C)c1` [5i, 1-(2,4-Dimethylphenyl)-2-((5-(2-(4-morpholinophenyl)-1H-benzo[d]imidazol-6-yl)-1,3,4-oxadiazol-2-yl) Thio) Ethan-1-One]?
IC50 [1]: 72.1 ± 4.61 µM; Selectivity index (SI) [1]: 2.05; IC50 [2]: 148 ± 3.99 µM

What does the source list for `O=C(CSc1nnc(-c2ccc3nc(-c4ccc(N5CCOCC5)cc4)[nH]c3c2)o1)c1ccc(Br)cc1` [5j, 1-(4-Bromophenyl)-2-((5-(2-(4-morpholinophenyl)-1H-benzo[d]imidazol-6-yl)-1,3,4-oxadiazol-2-yl) Thio) Ethan-1-One]?
IC50 [1]: 9.66 ± 0.149 µM; Selectivity index (SI) [1]: 0.47; IC50 [2]: 4.55 ± 0.763 µM; IC50 [3]: 0.098 ± 0.011 µM

With `CNC(=O)c1cc(Oc2ccc(NC(=O)Nc3ccc(Cl)c(C(F)(F)F)c3)cc2)ccn1` [Sorafenib, reference compound] as the compound, how does the IC50 [1] read?
Its IC50 is 2.92 ± 0.214 µM.

And the IC50 [2]?
The IC50 was 30.13 ± 0.147 µM.

Reference: article PMC12368815, “Targeting Cancer with New Morpholine-Benzimidazole-Oxadiazole Derivatives: Synthesis, Biological Evaluation, and Computational Insights” (ACS Omega, 2025)
